These results are taken from ChEMBL document CHEMBL5108072, “Discovery of Chlorofluoroacetamide-Based Covalent Inhibitors for Severe Acute Respiratory Syndrome Coronavirus 2 3CL Protease” (J Med Chem, 2022).

Assay [1] relates to SARS-CoV-2. Put plainly: microbe, parasite or virus in culture. To be noted: Severe acute respiratory syndrome coronavirus 2, omicron TY38-873 BA.1, HEK-293T.
Assay [2] deals with SARS-CoV-2. Put plainly: microbe, parasite or virus in culture. Particulars: Severe acute respiratory syndrome coronavirus 2, omicron TY38-873 BA.2, HEK-293T.

The structures appear in SMILES notation. pEC50: −log10 of the molar value.

In the case of `CC(C)C[C@H](NC(=O)c1cc2c(F)cccc2[nH]1)C(=O)NN(C[C@H]1CCNC1=O)C(=O)[C@H](F)Cl`, the pEC50 in the assay on SARS-CoV-2 [1] was 7.23; with SARS-CoV-2 [2], 6.88.

Consider `CC(C)C[C@H](NC(=O)c1cc2c(F)cccc2[nH]1)C(=O)NN(C[C@@H]1CCNC1=O)C(=O)[C@H](F)Cl`, for which the negative-log EC50 (pEC50) in the assay on SARS-CoV-2 [1] was 8.05; in the assay with SARS-CoV-2 [2] it was 7.77.

Regarding `CC(C)C[C@H](NC(=O)c1cc2c(F)cccc2[nH]1)C(=O)NN(C[C@@H]1CCNC1=O)C(=O)[C@@H](F)Cl`, the results for the negative-log EC50 (pEC50) with SARS-CoV-2 [1] and with SARS-CoV-2 [2] were 7.45 and 6.90, respectively.

As to `COc1cccc2[nH]c(C(=O)N[C@@H](CC(C)C)C(=O)NN(C[C@H]3CCNC3=O)C(=O)[C@H](F)Cl)cc12`, the pEC50 in the assay with SARS-CoV-2 [1] is 7.23; with SARS-CoV-2 [2] it was 6.92.

Take `COc1cccc2[nH]c(C(=O)N[C@@H](CC(C)C)C(=O)NN(C[C@@H]3CCNC3=O)C(=O)[C@H](F)Cl)cc12`: the results for the negative logarithm of the EC50 (pEC50) in the assay on SARS-CoV-2 [1] and with SARS-CoV-2 [2] were 8.00 and 7.74, respectively.

Take `O=c1nc(NO)ccn1[C@@H]1O[C@H](CO)[C@@H](O)[C@H]1O` [N-HYDROXYCYTIDINE]: the negative-log EC50 (pEC50) in the assay with SARS-CoV-2 [1] is 6.24; in the assay with SARS-CoV-2 [2], 6.47.

Consider `COc1cccc2[nH]c(C(=O)N[C@@H](CC(C)C)C(=O)N[C@@H](C[C@@H]3CCNC3=O)C(=O)CO)cc12` [PF-00835231], for which the pEC50 with SARS-CoV-2 [1] was 6.11; in the assay on SARS-CoV-2 [2], 6.08.

The term pEC50 denotes the negative decadic logarithm of the EC50, by convention in mol/L.
